For assay [1], the target named is T1, Plk1 PBD (Homo sapiens, UniProt P53350). The assay is described as follows: biochemical. It is filed as binding. Further details: and Plk1 PBD (Plasmid #41162) (45) linked to a 3× myc tagged; host or cells: HEK293T, crude cytosolic lysate. The conditions noted are these: Cell Lysate ELISA IC50 (μM). As for the experimental part:
HEK293T cells were plated on 10 cm culture dishes at 4M cells per plate. Following 24 h, the cells were transfected with 10 μg of plasmid DNA using 20 μL of TurboFect transfection reagent (Pierce Biotechnology) according to the manufacturer's instructions. Following 24 h, the cells were harvested using trypsin, washed with phosphate-buffered saline (PBS) 7.4 buffer, and lysed in lysis buffer (PBS 7.4+0.5% NP-40+protease/phosphatase inhibitor cocktail (Pierce Biotechnology)) using 3 freeze/thaw cycles. The lysed suspension was centrifuged at 10,000×G for 10 minutes to pellet membrane proteins and nuclei. The supernatant was removed to provide a crude cytosolic lysate containing expressed myc-tagged Plk1 or Plk1 PBD. The total protein concetration was determined using a Bicinchoninic Acid (BCA) assay kit (Pierce Biotechnology).
All assay steps were performed at room temperature with gentle shaking. A biotinylated phosphopeptide (sequence: Biotin-Ahx-PMQS(pT)PLN-NH2) (46-48) was diluted with PBS 7.4 to 1 μM (from a 10 mM dimethylsulfoxide (DMSO) stock solution) and loaded onto the wells of a 96-well Neutravidin-coated plate (Pierce Biotechnology) at 100 μL per well for 1 hour. The wells were washed once with 150 μL PBST (PBS 7.4+0.05% Tween-20), and then 100 μL of 1% bovine serum albumin (BSA) in PBS 7.4 (blocking buffer) were added for 1 hour. The cytosolic lysate containing myc-tagged protein was diluted to 300 μg/mL in PBS 7.4 containing protease/phosphatase inhibitors (Pierce Biotechnology), mixed with competitive inhibitor (from a 10× stock in 5% DMSO/PBS), and allowed to pre-incubate for 1 h (100 μL per well in a 96-well plate, 30 μg total protein). The blocked ELISA plate was washed 2× with PBST (150 μL) and the pre-incubated lysates were added to the plate to incubate for 1 hour. The wells were washed 4× with PBST (150 μL), then probed with anti-myc primary antibody (1:1500 dilution for assays that include macrocyclic peptidomimetic ligand of the present disclosure and 1:3000 dilution for all other assays, mouse monoclonal, Pierce Biotechnology) for 1 hour. […] The wells were then washed 5× with PBST (150 μL) and incubated with Turbo TMB-ELISA solution (Pierce Biotechnology) until the desired absorbance is reached (5-10 minutes). The reaction was quenched by the addition of 2M aq. H2SO4 and the absorbance was measured at 450 nm using a BioTek Synergy 2 96-well plate reader.
Compounds were evaluated for inhibition of Plk1 PBD binding to a pThrcontaining peptide by ELISA in cell lysates and by inhibition of cell proliferation in HeLa cells. Pmab=2(S)-amino-3(R)-methyl-4-phosphonobutanoic acid.
A general note: ELISA stands for enzyme-linked immunosorbent assay.
Target sequence in this assay (P53350 326-603 limits assumed): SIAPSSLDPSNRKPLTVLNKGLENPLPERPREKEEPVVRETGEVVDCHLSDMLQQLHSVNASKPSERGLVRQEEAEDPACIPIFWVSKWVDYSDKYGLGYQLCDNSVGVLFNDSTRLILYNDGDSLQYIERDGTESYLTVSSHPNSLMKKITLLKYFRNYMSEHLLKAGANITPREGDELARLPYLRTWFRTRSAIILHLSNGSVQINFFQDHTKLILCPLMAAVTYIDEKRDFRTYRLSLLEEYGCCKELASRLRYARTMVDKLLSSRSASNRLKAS

Assay [2] deals with T2, full-length Plk1 (Homo sapiens, UniProt P53350).
T2 construct: Plasmids encoding full length Plk1 (Plasmid #41160); host or cells: HEK293T, crude cytosolic lysate
T2 sequence (P53350 whole entry): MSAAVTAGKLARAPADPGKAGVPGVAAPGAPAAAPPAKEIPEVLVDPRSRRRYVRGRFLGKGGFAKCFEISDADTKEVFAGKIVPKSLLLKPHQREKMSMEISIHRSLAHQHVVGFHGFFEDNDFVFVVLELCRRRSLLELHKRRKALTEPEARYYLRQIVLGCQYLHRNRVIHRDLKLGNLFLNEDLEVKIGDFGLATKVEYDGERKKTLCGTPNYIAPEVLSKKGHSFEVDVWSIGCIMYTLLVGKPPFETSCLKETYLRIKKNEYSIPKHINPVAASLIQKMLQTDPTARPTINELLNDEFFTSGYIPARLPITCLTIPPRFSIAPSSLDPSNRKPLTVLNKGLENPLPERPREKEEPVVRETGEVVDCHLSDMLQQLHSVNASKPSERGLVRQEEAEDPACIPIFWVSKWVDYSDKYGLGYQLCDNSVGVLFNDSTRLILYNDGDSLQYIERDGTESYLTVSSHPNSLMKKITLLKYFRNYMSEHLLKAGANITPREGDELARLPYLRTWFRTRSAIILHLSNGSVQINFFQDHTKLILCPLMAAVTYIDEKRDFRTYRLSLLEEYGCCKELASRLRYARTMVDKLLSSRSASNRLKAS
As to the kind of experiment: ELISA inhibition assay: full-length Plk1 binding to immobilized pThr-containing peptide. Particulars: FIG. 5A/5B.

Assay [3] concerns the target T1, Plk1 PBD. It is filed as binding. Further details: host or cells: HEK293T, crude cytosolic lysate. Particulars: average ± SEM from five independent experiments.
Target sequence in this assay (P53350 whole entry): as above
Protocol: All assay steps were performed at room temperature with gentle shaking. A biotinylated phosphopeptide (sequence: Biotin-Ahx-PMQS(pT)PLN-NH2) (46-48) was diluted with PBS 7.4 to 1 μM (from a 10 mM dimethylsulfoxide (DMSO) stock solution) and loaded onto the wells of a 96-well Neutravidin-coated plate (Pierce Biotechnology) at 100 μL per well for 1 hour. The wells were washed once with 150 μL PBST (PBS 7.4+0.05% Tween-20), and then 100 μL of 1% bovine serum albumin (BSA) in PBS 7.4 (blocking buffer) were added for 1 hour. The cytosolic lysate containing myc-tagged protein was diluted to 300 μg/mL in PBS 7.4 containing protease/phosphatase inhibitors (Pierce Biotechnology), mixed with competitive inhibitor (from a 10× stock in 5% DMSO/PBS), and allowed to pre-incubate for 1 h (100 μL per well in a 96-well plate, 30 μg total protein). […] The wells were then washed 5× with PBST (150 μL) and incubated with Turbo TMB-ELISA solution (Pierce Biotechnology) until the desired absorbance is reached (5-10 minutes). […] H2SO4 and the absorbance was measured at 450 nm using a BioTek Synergy 2 96-well plate reader.
Absorbance was plotted versus concentration (log M) and fit to a non-linear regression using GraphPad Prism 6 software (model: log(inhibitor) vs. response—Variable slope (four parameters)) to provide IC50 values. […]
[4] abbreviates: Table 7, compounds 2 and 3 tested simultaneously for direct comparison.

Read-outs that look alike come from different tables or passages of the source. Peptide text beside a SMILES is read from it.

What is called IC50 is the concentration needed to halve the response being measured.

In the case of `CC(=O)N1CCCC1C(=O)N[C@@H](CC(C)C)C(=O)N[C@@H](Cc1cncn1CCc1ccccc1)C(=O)N[C@@H](CO)C(=O)NC(C(N)=O)C(C)OP(=O)(O)O` (stereo in doubt) [compound 3], the IC50 in assay [1] (Table 6) turned out to be 0.017 µM; in assay [1] (setting [4]), 0.023 µM.

`CC(=O)N1CCC[C@H]1C(=O)N[C@@H](CC(C)C)C(=O)N[C@H]1C[C@H](CCCCCCCCc2ccccc2)C(=O)NCCC[C@@H](C(N)=O)NC(=O)[C@H]([C@@H](C)OP=O)NC(=O)[C@H](CO)NC1=O` (some centres unmarked) [15a, cPLE*SpTO] (HELM PEPTIDE1{[ac].P.L.[O=C([C@H](C[C@H](CCCCCCCCc1ccccc1)C(=O)[*:3])N[*:1])[*:2]].S.[C[C@@H](OP=O)[C@H](N[*:1])C(=O)[*:2]].[Orn].[am]}$PEPTIDE1,PEPTIDE1,4:R3-7:R3$$$V2.0): the “inhibitory potency in competitive ELISA versus parent peptide 1 (4j)” value in assay [2] is reported as “improved potencies versus the parent peptide 1”.

For the compound `CC(=O)N1CCC[C@H]1C(=O)N[C@@H](CC(C)C)C(=O)N[C@H]1C[C@H](CCCCCCCCc2ccccc2)C(=O)NCCC[C@@H](C(N)=O)NC(=O)[C@H]([C@@H](C)OP=O)NC(=O)[C@H](CO)NC1=O` (some centres unmarked) [15b, cPLE*SpTo] (HELM PEPTIDE1{[ac].P.L.[O=C([C@H](C[C@H](CCCCCCCCc1ccccc1)C(=O)[*:3])N[*:1])[*:2]].S.[C[C@@H](OP=O)[C@H](N[*:1])C(=O)[*:2]].[Orn].[am]}$PEPTIDE1,PEPTIDE1,4:R3-7:R3$$$V2.0), in assay [2], the “inhibitory potency in competitive ELISA versus parent peptide 1 (4j)” value is listed as “dramatic reductions in potency”.

With `CC(=O)N1CCC[C@H]1C(=O)N[C@@H](CC(C)C)C(=O)N[C@H]1C[C@H](CCCCCCCCc2ccccc2)C(=O)NCCCC[C@@H](C(N)=O)NC(=O)[C@H]([C@@H](C)OP=O)NC(=O)[C@H](CO)NC1=O` (some centres unmarked) [15c, cPLE*SpTK] (HELM PEPTIDE1{[ac].P.L.[O=C([C@H](C[C@H](CCCCCCCCc1ccccc1)C(=O)[*:3])N[*:1])[*:2]].S.[C[C@@H](OP=O)[C@H](N[*:1])C(=O)[*:2]].K.[am]}$PEPTIDE1,PEPTIDE1,4:R3-7:R3$$$V2.0), the “inhibitory potency in competitive ELISA versus parent peptide 1 (4j)” value in assay [2] is “improved potencies versus the parent peptide 1”.

`CC(=O)N1CCC[C@H]1C(=O)N[C@@H](CC(C)C)C(=O)N[C@H]1C[C@H](CCCCCCCCc2ccccc2)C(=O)NCCCC[C@H](C(N)=O)NC(=O)[C@H]([C@@H](C)OP=O)NC(=O)[C@H](CO)NC1=O` (some centres unmarked) [15d, cPLE*SpTk] (HELM PEPTIDE1{[ac].P.L.[O=C([C@H](C[C@H](CCCCCCCCc1ccccc1)C(=O)[*:3])N[*:1])[*:2]].S.[C[C@@H](OP=O)[C@H](N[*:1])C(=O)[*:2]].[dK].[am]}$PEPTIDE1,PEPTIDE1,4:R3-7:R3$$$V2.0): in assay [2], the “inhibitory potency in competitive ELISA versus parent peptide 1 (4j)” value is recorded as “dramatic reductions in potency”.

Take `CC(=O)N1CCC[C@H]1C(=O)N[C@@H](CC(C)C)C(=O)N[C@@H](Cc1cncn1CCCCCCCCc1ccccc1)C(=O)N[C@@H](CO)C(=O)N[C@H](C(N)=O)[C@@H](Cc1ccccc1)CP(=O)(O)O` [18d] (HELM PEPTIDE1{[ac].P.L.[O=C([C@H](Cc1cncn1CCCCCCCCc1ccccc1)N[*:1])[*:2]].S.[O=C([C@@H](N[*:1])[C@@H](Cc1ccccc1)CP(=O)(O)O)[*:2]].[am]}$$$$V2.0; N-terminus assumed): the IC50 in assay [3] is 300 ± 80 nM.

With `CC(=O)N1CCC[C@H]1C(=O)N[C@@H](CC(C)C)C(=O)N[C@@H](Cc1cncn1CCCCCCCCc1ccccc1)C(=O)N[C@@H](CO)C(=O)N[C@H](C(N)=O)[C@@H](CCc1ccccc1)CP(=O)(O)O` [18e] (HELM PEPTIDE1{[ac].P.L.[O=C([C@H](Cc1cncn1CCCCCCCCc1ccccc1)N[*:1])[*:2]].S.[O=C([C@@H](N[*:1])[C@@H](CCc1ccccc1)CP(=O)(O)O)[*:2]].[am]}$$$$V2.0; N-terminus assumed), 70 ± 20 nM corresponded to half-maximal inhibition in assay [3] (IC50).

As for `CC(=O)N1CCCC1C(=O)N[C@@H](CC(C)C)C(=O)N[C@@H](Cc1cncn1CCc1ccccc1)C(=O)N[C@@H](CO)C(=O)NC(C(N)=O)C(C)CP(=O)(O)O` (some centres unmarked) [compound 4], in assay [1] (Table 6), the IC50 is 0.02 µM.

In the case of `CC(=O)N1CCCC1C(=O)N[C@@H](CC(C)C)C(=O)N[C@@H](Cc1cnc[nH]1)C(=O)N[C@@H](CO)C(=O)NC(C(N)=O)[C@@H](Cc1ccccc1)CP(=O)(O)O` (some centres unmarked) [compound 15] (HELM PEPTIDE1{[ac].[O=C(C1CCCN1[*:1])[*:2]].L.H.S.[O=C(C(N[*:1])[C@@H](Cc1ccccc1)CP(=O)(O)O)[*:2]].[am]}$$$$V2.0), the IC50 in assay [1] (setting [4]) was determined as 50 µM.

As for `CC(=O)N1CCCC1C(=O)N[C@@H](CC(C)C)C(=O)N[C@@H](Cc1cncn1CCc1ccccc1)C(=O)N[C@@H](CO)C(=O)NC(C(N)=O)[C@@H](Cc1ccccc1)CP(=O)(O)O` (some centres unmarked) [compound 16], the IC50 in assay [1] (setting [4]) is 0.035 µM.

The values above are taken from patent US10905769B2, “Peptide and peptide mimetic binding antagonists of polo-like kinase 1 polo box domain and methods of use” (priority 2015, dated 2021).
